Laboratory results taken from patent publication US10716783B2, “Prolylhydroxylase/ATF4 inhibitors and methods of use for treating neural cell injury or death and conditions resulting therefrom” (CORNELL UNIVERSITY, priority 2013, dated 2020).
Entries after “also recorded” stand apart in the source; their conditions may differ.

Tests used:
[1] = test system: immortalized hippocampal neuroblasts (HT22 cells); experiment: Hemin-induced toxicity in hippocampal neuroblasts (MTT); type: cell-based
Text: FIGS. 1A-1L: Structurally diverse HIF PHD inhibitors stabilize HIF-1 and abrogate toxicity induced by hemin, a byproduct of blood breakdown, in cortical neurons hippocampal neuroblasts and striatal neuroblasts (not shown).
Secondary injury from ICH has been attributed to hemin, a breakdown product of hemoglobin (from lysed red blood cells). To investigate the mechanisms of hemin toxicity to neurons in vitro, this experiment exposed primary cortical neurons, immortalized hippocampal neuroblasts (HT22 cells), and immortalized striatal neuroblasts (Q7 cells) to hemin for 24 hours. As expected, a dose dependent loss in viability as measured by MTT reduction or LIVE/DEAD assay in all three cell types was observed. […] To examine whether iron-dependent HIF PHD enzymes can be modulated to protect neurons from hemin-induced toxicity, this experiment examined structurally diverse inhibitors of the HIF PHDs: desferoxamine, cyclopirox, and dihydroxybenzoic acid. […] To test this notion further using a chemical biological approach, the protective effects of cyclopirox, a HIF PHD inhibitor, and a cyclopirox analog with no PHD inhibitory activity but with similar metal binding affinity to cyclopirox were compared. As expected, only the cyclopirox analog with PHD inhibitory activity was neuroprotective. […]

primary cortical neurons = experiment: Oxidative glutamate (homocysteate) toxicity in cortical neurons; type: cell-based, rat
Text: (§1) FIGS. 5A-5G. […] Because adaptoquin is a HIF PHD inhibitor that appears to work independent of HIF transcription factors, and because hemin induced death involves oxidative stress, the effect of adaptoquin on oxidative glutamate toxicity was examined. This form of toxicity is observed in primary cortical neurons from E17 rat embryos (2 DIV) and involves glutamate mediated inhibition of the amino acid cystine via its plasma membrane transporter. […] Accordingly, the optimal concentration of adaptoquin in protecting neurons was first determined and found to be about 1 micromolar. […] To determine the mechanism of adaptoquin, transcriptomic experiments were performed using non-protective and protective concentrations of drug harvesting RNA just prior to the time the cell's becoming insensitive to adaptoquin (16 hrs), as provided in FIG. 5C.
(§2) To probe the mechanism of adaptoquin-induced neuroprotection, the study moved its attention to a well established model of oxidative stress in neurons induced by glutamate. Like hemin induced toxicity, oxidative glutamate toxicity is abrogated by forced expression of GPX4 (Alim et al., unpublished observations). However, oxidative glutamate toxicity has a much longer window before cells are committed to die (eighteen hours), facilitating analysis of primary events involved in cell death and protection. A detailed dose response and therapeutic window study was performed with adaptoquin in mouse cortical neurons exposed to glutamate or the glutamate analog, homocysteate. […] To probe the mechanism of this potent, delayed protection, a microarray transcriptomics study was performed using RNA from neuronal cultures that had been exposed to glutamate (or HCA) for 16 hours with vehicle, as well as non-protective (100 nM) and protective doses of adaptoquin (1 μM). Protective, but not protective doses of adaptoquin reduced expression of a host of genes induced by oxidative stress including Tribbles homolog 3, methylene tetrahydrofolate reductase, the Xc-transporter, and stanniocalcin-2 hormone glycoprotein.

ATF4 = ATF4 dependent gene expression under oxidative stress in neurons (microarray, qPCR, promoter occupancy); type: cell-based
Text: as §1
FIGS. 6A-6I. […] Expression of ATF4 was forced into primary neurons, which induces death of these neurons by MTT assay (FIG. 6D) or LIVE/DEAD staining, Green is live, Red is dead (FIG. 6E).
as §2, with “Protective, but not protective doses of adaptoquin reduced expression of a host of genes induced by oxidative stress including Tribbles homolog 3, methylene tetrahydrofolate reductase, the Xc-transporter, and stanniocalcin-2 hormone glycoprotein.” left out

## Oc1cccnc1NC(c1ccc(Cl)cc1)c1ccc2cccnc2c1O (stereo not drawn) [adaptoquin]
[1]
  Hemin-induced death / protection after HIF-1α or HIF-2α reduction (shRNA): prevents hemin induced death independent of HIF-1 and HIF-2
Primary cortical neurons; 0.1 micromolar (100 nM)
  Protection against oxidative death: non-protective
Primary cortical neurons; 1 micromolar
  Protection against oxidative death: complete protection
  Time after glutamate/homocysteate treatment at which the compound can still be added and protect: up to 16 hours
Primary cortical neurons; 1 micromolar, listed as adaptaquin
  Protection against oxidative death: protection is significant
Primary cortical neurons; oxidative glutamate toxicity
  Optimal concentration in protecting neurons: about 1 micromolar
ATF4; 1 micromolar
  Oxidative stress and ATF4 dependent induction of Trb3: abrogates oxidative stress and ATF4 dependent induction of Trb3
ATF4; oxidative stress
  ATF4 occupancy at the promoter of Trib3: abrogates oxidative stress induced ATF4 occupancy
ATF4; protective doses (1 μM), quantitative PCR / microarray
  Expression of ATF4 dependent genes (Trib3, MTHFR2, SCL7A11, STC2): significantly reduces expression of ATF4 dependent genes; also recorded: downregulation of ATF4 dependent genes
